Source: patent US20070270409A1, “Medicament for Preventing and/or Treating Ischemic Cardiovascular Disease” (Mitsubishi Pharma Corporation, priority 2004, published 2007)

System: patients with anterior ST-segment elevation myocardial infarction undergoing PCI
Assay: Clinical study of caldaret in patients undergoing PCI: SPECT measurements and cardiac serum markers
Format: in vivo
Conditions: for Infarct size (% of the left ventricle): continuous intravenous 48 hours started about 30 minutes before PCI; for Infarct size (% of the left ventricle) / EDV (left ventricular end-diastolic volume) / ESV (left ventricular end-systolic volume) / LVEF (left ventricular ejection fraction): SPECT at day 7; for Infarct size (% of the left ventricle) / Serum marker CK / Serum marker TnT / EDV (left ventricular end-diastolic volume) / ESV (left ventricular end-systolic volume) / LVEF (left ventricular ejection fraction): TIMI flow grade 0 or 1; for Serum marker CK / Serum marker TnT / EDV (left ventricular end-diastolic volume) / ESV (left ventricular end-systolic volume) / LVEF (left ventricular ejection fraction): continuous intravenous 48 hours; for Serum marker CK: AUC of CK at days 0 to 3; for Serum marker TnT: AUC of TnT at days 0 to 5
Procedure: Three hundred and eighty-seven patients with ΣST elevation of 10 mm or more undergoing PCI were divided into 3 groups: a caldaret non-administration group; a 61.5 mg caldaret administration group (57.5 mg in terms of 5-methyl-2-(1-piperazinyl)benzenesulfonic acid) (low-dose group); and a 184.6 mg caldaret administration group (172.5 mg in terms of 5-methyl-2-(1-piperazinyl)benzenesulfonic acid) (high-dose group). To these patients, administration of placebo (the caldaret non-administration group) or caldaret (the low-dose group and the high-dose group) was initiated about 30 minutes before PCI was performed. Placebo or caldaret was continuously administered intravenously for 48 hours. At day 7 after administration (the initiation day of adminstration=day 0 after administration, and hereinafter the same), the infarct size, the left ventricular end-systolic volume (ESV), the left ventricular end-diastolic volume (EDV) and the left ventricular ejection fraction (LVEF) were measured by SPECT and the cardiac serum markers were measured. Incidentally, as for the serum markers, AUC of TnT at days 0 to 5 after administration and AUC of CK at days 0 to 3 after administration were measured.
Hereinafter, the measurement results in 247 patients with TIMI flow grade 0 or 1 diagnosed with anterior ST-segment elevation myocardial infarction (88 patients in the low-dose group, 70 patients in the high-dose group and 89 patients in the caldaret non-administration group) are shown.

[1] = high-dose group, 184.6 mg caldaret
[2] = low-dose group, 61.5 mg caldaret

Structure (SMILES): Cc1ccc(N2CCNCC2)c(S(=O)(=O)O)c1.O [caldaret, 5-methyl-2-(1-piperazinyl)benzenesulfonic acid monohydrate]
- All the measurement parameters compared with the non-administration group (359 patients with anterior ST-segment elevation myocardial infarction regardless of the TIMI flow grade, low-dose and high-dose groups): improving tendency
- Infarct size (% of the left ventricle) [1]: 25.7 (b) % of the left ventricle
- Serum marker CK [1]: 1157 (*) IU/I
- Serum marker TnT [1]: 4.3 mg/L
- EDV (left ventricular end-diastolic volume) [1]: 134.1 mL
- ESV (left ventricular end-systolic volume) [1]: 78.0 mL
- LVEF (left ventricular ejection fraction) [1]: 38.1 (*) %
- Infarct size (% of the left ventricle) [2]: 24.4 (a) % of the left ventricle
- Serum marker CK [2]: 1144 (*) IU/I
- Serum marker TnT [2]: 5 mg/L
- EDV (left ventricular end-diastolic volume) [2]: 138.4 mL
- ESV (left ventricular end-systolic volume) [2]: 80.7 mL
- LVEF (left ventricular ejection fraction) [2]: 36.6%
- Effect on myocardial injury and myocardial function (patient with anterior ST-segment elevation myocardial infarction undergoing percutaneous coronary intervention, overall conclusion): can alleviate myocardial injury and preserve myocardial function
